Our source for the IC50 values is ChEMBL document CHEMBL4417631, “Oral peptide inhibitors of interleukin-23 receptor and their use to treat inflammatory bowel diseases” (2017).

Where a SMILES comes first, the peptide text is derived from it.

For this assay, the target named is T1, Interleukin-23 receptor (Homo sapiens, UniProt Q5VWK5).
T1 sequence (Q5VWK5 whole entry): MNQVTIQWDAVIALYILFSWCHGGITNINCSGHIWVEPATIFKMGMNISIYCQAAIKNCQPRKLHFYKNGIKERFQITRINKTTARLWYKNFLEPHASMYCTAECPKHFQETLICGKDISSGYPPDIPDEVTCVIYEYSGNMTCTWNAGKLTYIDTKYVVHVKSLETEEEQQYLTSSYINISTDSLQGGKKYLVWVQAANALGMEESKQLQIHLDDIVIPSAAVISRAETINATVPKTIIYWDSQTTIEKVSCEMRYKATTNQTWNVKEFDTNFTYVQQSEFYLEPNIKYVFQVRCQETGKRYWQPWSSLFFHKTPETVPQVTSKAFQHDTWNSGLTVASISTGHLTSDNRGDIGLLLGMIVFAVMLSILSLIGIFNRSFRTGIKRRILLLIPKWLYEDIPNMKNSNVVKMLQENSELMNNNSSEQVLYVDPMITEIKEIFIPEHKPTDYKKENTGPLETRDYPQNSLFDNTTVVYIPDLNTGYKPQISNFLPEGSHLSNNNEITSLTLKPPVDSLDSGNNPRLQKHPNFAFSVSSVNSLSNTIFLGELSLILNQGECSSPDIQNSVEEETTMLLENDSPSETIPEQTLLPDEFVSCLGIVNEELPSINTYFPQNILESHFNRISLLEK
Briefly: Inhibition of interleukin-23 binding to human interleukin-23 receptor incubated for 2 hrs by competitive binding ELISA.

In the case of `CC(=O)N[C@H](CCCCNC(=O)COCC(=O)NCCCC[C@@H](NC(C)=O)C(=O)N[C@@H](CO)C(=O)N[C@@H](CS)C(=O)N[C@@H](C)C(=O)N[C@@H](CC(=O)O)C(=O)N[C@@H](Cc1c[nH]c2ccccc12)C(=O)N[C@H](C(=O)N[C@@H](CS)C(=O)N[C@@H](Cc1ccc(O)cc1)C(=O)N[C@@H](Cc1c[nH]c2ccccc12)C(=O)N[C@@H](Cc1cnc[nH]1)C(=O)N[C@H](C(=O)N[C@@H](Cc1ccccc1)C(=O)NCC(=O)O)[C@@H](C)O)C(C)C)C(=O)N[C@@H](CO)C(=O)N[C@@H](CS)C(=O)N[C@@H](C)C(=O)N[C@@H](CC(=O)O)C(=O)N[C@@H](Cc1c[nH]c2ccccc12)C(=O)N[C@H](C(=O)N[C@@H](CS)C(=O)N[C@@H](Cc1ccc(O)cc1)C(=O)N[C@@H](Cc1c[nH]c2ccccc12)C(=O)N[C@@H](Cc1cnc[nH]1)C(=O)N[C@H](C(=O)N[C@@H](Cc1ccccc1)C(=O)NCC(=O)O)[C@@H](C)O)C(C)C`, the 50% inhibitory concentration (IC50) was more than 10000 nM. With `CC(=O)N[C@@H](CS)C(=O)N(C)[C@@H](CCCCN)C(=O)N[C@H](C(=O)N[C@@H](Cc1c[nH]c2ccccc12)C(=O)N[C@@H](CCC(N)=O)C(=O)N[C@@H](CS)C(=O)N[C@@H](Cc1ccc(O)cc1)C(=O)N[C@@H](Cc1c[nH]c2ccccc12)C(=O)N[C@@H](CCCNC(=N)N)C(=O)N[C@H](C(=O)N[C@@H](Cc1ccccc1)C(=O)NCC(=O)NCCOCC(=O)N[C@H](CCCCN)C(N)=O)C(C)C)[C@@H](C)O` the figure was 80 nM. Turning to `CC(=O)N[C@@H](CS)C(=O)N[C@@H](CCC(N)=O)C(=O)N[C@H](C(=O)N[C@@H](Cc1c[nH]c2ccccc12)C(=O)N[C@@H](CCC(N)=O)C(=O)N[C@@H](CS)C(=O)N[C@@H](Cc1ccc(O)cc1)C(=O)N[C@@H](Cc1c[nH]c2ccccc12)C(=O)N[C@@H](CC1CCCC1)C(=O)N[C@@H](CCC(=O)O)C(=O)N[C@@H](CC(N)=O)C(=O)NCC(=O)NCCOCC(=O)N[C@H](CCCCN)C(N)=O)[C@@H](C)O`, the half-maximal inhibitory concentration (IC50) is less than 500 nM. In the case of `CC(=O)N[C@H](C(=O)N[C@@H](CCC(N)=O)C(=O)N[C@H](C(=O)N[C@@H](Cc1c[nH]c2ccccc12)C(=O)N[C@@H](CCC(N)=O)C(=O)N[C@H](C(=O)N[C@@H](Cc1ccc(Cl)c(Cl)c1)C(=O)N[C@@H](Cc1ccc2ccccc2c1)C(=O)N[C@@](C)(CCCN)C(=O)N[C@@H](CCC(=O)O)C(=O)N[C@@H](CC(N)=O)C(=O)NCC(N)=O)C(C)(C)S)[C@@H](C)O)C(C)(C)S` it was 100 to 1000 nM; in that of `CC(=O)N[C@@H](CS)C(=O)N[C@@H](C)C(=O)N[C@@H](CC(=O)O)C(=O)N[C@@H](Cc1c[nH]c2ccccc12)C(=O)N[C@H](C(=O)N[C@@H](CS)C(=O)N[C@@H](Cc1ccc(O)cc1)C(=O)N[C@@](C)(Cc1ccc(F)cc1)C(=O)N[C@@H](CCCN)C(=O)N[C@@H](CN)C(=O)N[C@@H](Cc1ccccc1)C(=O)NCC(=O)NCCOCC(=O)N[C@H](CCCCN)C(N)=O)C(C)C`, more than 30000 nM; in that of `CC(=O)N[C@@H](CS)C(=O)N[C@@H](C)C(=O)N[C@@H](CC(=O)O)C(=O)N[C@@H](Cc1c[nH]c2ccccc12)C(=O)N[C@H](C(=O)N[C@@H](CS)C(=O)N[C@@H](Cc1ccc(O)cc1)C(=O)N[C@@H](Cc1c[nH]c2ccccc12)C(=O)N[C@@H](Cc1cnc[nH]1)C(=O)N[C@H](C(=O)N[C@@H](Cc1ccccc1)C(=O)NCC(=O)NCCCC(=O)N[C@H](CCCCN)C(=O)O)[C@@H](C)O)C(C)C`, less than 500 nM. Consider `CC(=O)NC1CC/C=C\CC(C(=O)N[C@@H](Cc2ccc(O)cc2)C(=O)N[C@@H](Cc2c[nH]c3ccccc23)C(=O)N[C@@H](CCCNC(=N)N)C(=O)N[C@@H](CCCCN)C(=O)N[C@@H](Cc2ccccc2)C(=O)NCC(=O)NCCOCC(=O)N[C@H](CCCCN)C(N)=O)NC(=O)[C@H](CCC(N)=O)NC(=O)[C@H](Cc2c[nH]c3ccccc23)NC(=O)[C@H]([C@@H](C)O)NC(=O)[C@H](CCCNC(=N)N)NC1=O` (some centres not stated), for which the IC50 fell in the range of 100 to 1000 nM. On to `CC(=O)N[C@H]1CCSC[C@@H](C(=O)N[C@@H](Cc2ccc(OCCN)cc2)C(=O)N[C@@H](Cc2ccc3ccccc3c2)C(=O)N[C@@](C)(CCCCN)C(=O)N[C@@H](CCC(=O)O)C(=O)N[C@@H](CC(N)=O)C(=O)NCC(N)=O)NC(=O)[C@H](CCC(N)=O)NC(=O)[C@@H]2Cc3c([nH]c4ccccc34)CN2C(=O)[C@H]([C@@H](C)O)NC(=O)[C@H](CCC(N)=O)NC1=O`, for which the IC50 lay in the range of 100 to 1000 nM. In the case of `CC(C)[C@H](NC(=O)[C@H](Cc1cnc[nH]1)NC(=O)[C@H](Cc1c[nH]c2ccccc12)NC(=O)[C@H](Cc1ccc(O)cc1)NC(=O)[C@H](CS)NC(=O)[C@H](CCCNC(=N)N)NC(=O)[C@H](Cc1c[nH]c2ccccc12)NC(=O)[C@H](CC(=O)O)NC(=O)[C@H](CO)NC(=O)[C@@H](N)CS)C(=O)N[C@@H](Cc1ccccc1)C(=O)NCC(N)=O` (H-CSDWRCYWHVFG-NH2) it was more than 1000 nM; in that of `CC(=O)N[C@H]1CCSC[C@@H](C(=O)N[C@@H](Cc2ccc(C(N)=O)cc2)C(=O)N[C@@H](Cc2ccc3ccccc3c2)C(=O)NC(C)(C)C(=O)N[C@@H](CCC(=O)O)C(=O)N[C@@H](CC(N)=O)C(=O)NCC(N)=O)NC(=O)[C@H](CCC(N)=O)NC(=O)[C@H](Cc2c[nH]c3ccccc23)NC(=O)[C@H]([C@@H](C)O)NC(=O)[C@H](CCC(N)=O)NC1=O`, 100 to 1000 nM. As to `CC(=O)N[C@@H](CS)C(=O)N[C@@H](C)C(=O)N[C@@H](CC(=O)O)C(=O)N[C@@H](Cc1c[nH]c2ccccc12)C(=O)N[C@H](C(=O)N[C@@H](CS)C(=O)N[C@@H](Cc1ccc(O)cc1)C(=O)N[C@@H](Cc1c[nH]c2ccccc12)C(=O)N[C@@H](Cc1cnc[nH]1)C(=O)N[C@H](C(=O)N[C@@H](Cc1ccccc1)C(=O)NCC(=O)NCCC(=O)N[C@H](CCCCNC(=O)COCC(=O)NCCCC[C@@H](NC(=O)CCNC(=O)CNC(=O)[C@H](Cc1ccccc1)NC(=O)[C@@H](NC(=O)[C@H](Cc1cnc[nH]1)NC(=O)[C@H](Cc1c[nH]c2ccccc12)NC(=O)[C@H](Cc1ccc(O)cc1)NC(=O)[C@H](CS)NC(=O)[C@@H](NC(=O)[C@H](Cc1c[nH]c2ccccc12)NC(=O)[C@H](CC(=O)O)NC(=O)[C@H](C)NC(=O)[C@H](CS)NC(C)=O)C(C)C)[C@@H](C)O)C(=O)O)C(=O)O)[C@@H](C)O)C(C)C`, the half-inhibitory concentration (IC50) was in the range of 25 to 100 nM. Molecule `CC(=O)N[C@@H](CS)C(=O)N[C@@H](CCC(N)=O)C(=O)N[C@H](C(=O)N[C@@H](Cc1c[nH]c2ccccc12)C(=O)N[C@@H](CCC(N)=O)C(=O)N[C@@H](CS)C(=O)N(C)[C@@H](Cc1ccc(O)cc1)C(=O)N[C@@H](Cc1c[nH]c2ccccc12)C(=O)N[C@@H](CCC(C)C)C(=O)N[C@@H](CCC(=O)O)C(=O)N[C@@H](CC(N)=O)C(=O)NCC(N)=O)[C@@H](C)O` registered an IC50 of more than 30000 nM. In the case of `CCCCCCCC(=O)N[C@H](C(=O)N[C@@H](CCC(N)=O)C(=O)N[C@H](C(=O)N[C@@H](Cc1c[nH]c2ccccc12)C(=O)N[C@@H](CCC(N)=O)C(=O)N[C@H](C(=O)N[C@@H](Cc1ccc(OC)cc1)C(=O)N[C@@H](Cc1ccc2ccccc2c1)C(=O)N[C@@](C)(CCCCN)C(=O)N[C@@H](CCCCNC(C)=O)C(=O)N[C@@H](CC(N)=O)C(=O)NCC(N)=O)C(C)(C)S)[C@@H](C)O)C(C)(C)S` it was 100 to 1000 nM; in that of `CC(=O)N[C@@H](CS)C(=O)N[C@@H](CCC(N)=O)C(=O)N[C@@H](CC(=O)O)C(=O)N[C@@H](Cc1c[nH]c2ccccc12)C(=O)N[C@@H](CCC(N)=O)C(=O)N[C@@H](CS)C(=O)N[C@@H](Cc1ccc(O)cc1)C(=O)N[C@@H](Cc1c[nH]c2ccccc12)C(=O)N[C@@H](CCCNC(=N)N)C(=O)N[C@@H](CCC(=O)O)C(=O)N[C@@H](CC(N)=O)C(=O)NCC(=O)NCCOCC(=O)N[C@H](CCCCN)C(N)=O`, less than 500 nM; in that of `CC(=O)NCCCC[C@H](NC(=O)[C@](C)(CCCCN)NC(=O)[C@H](Cc1ccc2ccccc2c1)NC(=O)[C@H](Cc1cc(F)cc(F)c1)NC(=O)[C@@H](NC(=O)[C@H](CCC(N)=O)NC(=O)[C@H](Cc1c[nH]c2ccccc12)NC(=O)[C@@H](NC(=O)[C@H](CCC(N)=O)NC(=O)[C@@H](NC(C)=O)C(C)(C)S)[C@@H](C)O)C(C)(C)S)C(=O)N[C@@H](CC(N)=O)C(=O)NCC(N)=O`, 100 to 1000 nM. As to `CC(=O)N[C@@H](CS)C(=O)N[C@@H](CCC(N)=O)C(=O)N[C@H](C(=O)N[C@@H](Cc1c[nH]c2ccccc12)C(=O)N[C@@H](CCC(N)=O)C(=O)N[C@@H](CS)C(=O)N[C@@H](Cc1ccc(O)cc1)C(=O)N[C@@H](Cc1c[nH]c2ccccc12)C(=O)N[C@@H](CCCNC(=N)N)C(=O)N(C)[C@@H](CCCNC(=N)N)C(=O)N[C@@H](CC(N)=O)C(=O)NCC(=O)NCCOCC(=O)N[C@H](CCCCN)C(N)=O)[C@@H](C)O`, the half-maximal inhibitory concentration (IC50) was more than 1000 nM. In the case of `CC(=O)N[C@@H](CS)C(=O)N[C@@H](C)C(=O)N[C@@H](CC(=O)O)C(=O)N[C@@H](Cc1c[nH]c2ccccc12)C(=O)N[C@H](C(=O)N[C@@H](CS)C(=O)N[C@@H](Cc1ccc(O)cc1)C(=O)N[C@@H](Cc1c[nH]c2ccccc12)C(=O)N[C@@H](Cc1cnc[nH]1)C(=O)N[C@@H](CCCNC(=N)N)C(=O)N[C@@H](CO)C(=O)N[C@H](C(=O)NCC(=O)NCC(=O)N[C@@H](CCC(N)=O)C(=O)N[C@@H](Cc1cnc[nH]1)C(N)=O)[C@@H](C)O)C(C)C` (Ac-CADWVCYWHRSTGGQH-NH2) it was 500 to 1000 nM.
